# Measurements as given in PubChem BioAssay (NCI).
#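 Dose response: 5 concentrations. Exposure: 48 h. Format: 96-well plates. Endpoint: linear interpolation; highest concentration if not reached. TGI denotes the concentration required for complete inhibition of growth.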
# Experiments:
# Assay in all cases: NCI-60 cell line screen, 48 h
# [1] = system: 786-0 renal
# [2] = system: A498 renal
# [3] = system: A549 NSCLC
# [4] = system: ACHN renal
# [5] = system: BT-549 breast
# [6] = system: CAKI-1 renal
# [7] = system: CCRF-CEM leukemia
# [8] = system: COLO 205 colon
# [9] = system: DU-145 prostate
# [10] = system: EKVX NSCLC
# [11] = system: HCC-2998 colon
# [12] = system: HCT-116 colon
# [13] = system: HCT-15 colon
# [14] = system: HL-60(TB) leukemia
# [15] = system: HOP-62 NSCLC
# [16] = system: HOP-92 NSCLC
# [17] = system: HS 578T breast
# [18] = system: HT29 colon
# [19] = system: IGROV1 ovarian
# [20] = system: K-562 leukemia
# [21] = system: KM12 colon
# [22] = system: LOX IMVI melanoma
# [23] = system: M14 melanoma
# [24] = system: MALME-3M melanoma
# [25] = system: MCF7 breast
# [26] = system: MDA-MB-231 breast
# [27] = system: MDA-MB-435
# [28] = system: MOLT-4 leukemia
# [29] = system: NCI-H226 lung
# [30] = system: NCI-H23 lung
# [31] = system: NCI-H460 lung
# [32] = system: NCI-H522 lung
# [33] = system: NCI/ADR-RES ovarian
# [34] = system: OVCAR-3 ovarian
# [35] = system: OVCAR-4 ovarian
# [36] = system: OVCAR-5 ovarian
# [37] = system: OVCAR-8 ovarian
# [38] = system: PC-3 prostate
# [39] = system: RPMI-8226 leukemia
# [40] = system: RXF 393 renal
# [41] = system: SF-268 CNS
# [42] = system: SF-295 CNS
# [43] = system: SF-539 CNS
# [44] = system: SK-MEL-2 melanoma
# [45] = system: SK-MEL-28 melanoma
# [46] = system: SK-MEL-5 melanoma
# [47] = system: SK-OV-3 ovarian
# [48] = system: SN12C renal
# [49] = system: SNB-19 CNS
# [50] = system: SNB-75 CNS
# [51] = system: SR leukemia
# [52] = system: SW-620 colon
# [53] = system: T-47D breast
# [54] = system: TK-10 renal
# [55] = system: U251 CNS
# [56] = system: UACC-257 melanoma
# [57] = system: UACC-62 melanoma
# [58] = system: UO-31 renal
# [59] = system: MDA-N
structure (smiles),measurement,setting,value
Cl/C(=C\C=Nc1ccc(I)cc1)c1ccc2ccccc2c1,TGI,[1],40.7 µM
same,TGI,[2],> 90 µM
same,TGI,[3],> 100 µM
same,TGI,[4],29.9 µM
same,TGI,[5],47 µM
same,TGI,[6],29 µM
same,TGI,[7],> 25.1 µM
same,TGI,[8],43 µM
same,TGI,[9],> 61.4 µM
same,TGI,[10],> 100 µM
same,TGI,[11],17.8 µM
same,TGI,[12],33.2 µM
same,TGI,[13],33.8 µM
same,TGI,[14],44.4 µM
same,TGI,[15],40.7 µM
same,TGI,[16],> 85 µM
same,TGI,[17],> 87.7 µM
same,TGI,[18],> 100 µM
same,TGI,[19],> 55.7 µM
same,TGI,[20],31.8 µM
same,TGI,[21],33.5 µM
same,TGI,[22],30.9 µM
same,TGI,[23],31.5 µM
same,TGI,[24],42 µM
same,TGI,[25],> 87.5 µM
same,TGI,[26],36 µM
same,TGI,[27],28 µM
same,TGI,[28],13.6 µM
same,TGI,[29],> 59.7 µM
same,TGI,[30],31 µM
same,TGI,[31],> 79.4 µM
same,TGI,[32],> 100 µM
same,TGI,[33],32.5 µM
same,TGI,[34],30.9 µM
same,TGI,[35],46.5 µM
same,TGI,[36],> 64.6 µM
same,TGI,[37],41.3 µM
same,TGI,[38],> 100 µM
same,TGI,[39],56.5 µM
same,TGI,[40],61.8 µM
same,TGI,[41],65.4 µM
same,TGI,[42],51.3 µM
same,TGI,[43],44.4 µM
same,TGI,[44],56.1 µM
same,TGI,[45],46.2 µM
same,TGI,[46],38.7 µM
same,TGI,[47],74.4 µM
same,TGI,[48],40.6 µM
same,TGI,[49],39.7 µM
same,TGI,[50],> 79.9 µM
same,TGI,[51],19 µM
same,TGI,[52],68.6 µM
same,TGI,[53],61.9 µM
same,TGI,[54],49.6 µM
same,TGI,[55],35 µM
same,TGI,[56],33.8 µM
same,TGI,[57],34.3 µM
same,TGI,[58],> 55.9 µM
CN(CC(=O)O)c1ncc2c(n1)-c1ccccc1OC2,TGI,[1],> 100 µM
same,TGI,[2],> 100 µM
same,TGI,[3],> 100 µM
same,TGI,[4],> 100 µM
same,TGI,[6],> 100 µM
same,TGI,[7],> 100 µM
same,TGI,[8],> 100 µM
same,TGI,[9],> 100 µM
same,TGI,[10],> 100 µM
same,TGI,[12],> 100 µM
same,TGI,[13],> 100 µM
same,TGI,[14],> 100 µM
same,TGI,[16],> 100 µM
same,TGI,[17],> 100 µM
same,TGI,[18],> 100 µM
same,TGI,[19],> 100 µM
same,TGI,[20],> 100 µM
same,TGI,[21],> 100 µM
same,TGI,[22],> 100 µM
same,TGI,[23],> 100 µM
same,TGI,[24],> 100 µM
same,TGI,[25],> 100 µM
same,TGI,[26],> 100 µM
same,TGI,[27],> 100 µM
same,TGI,[59],> 100 µM
same,TGI,[28],> 100 µM
same,TGI,[30],> 100 µM
same,TGI,[31],> 100 µM
same,TGI,[32],> 100 µM
same,TGI,[33],> 100 µM
same,TGI,[35],> 100 µM
same,TGI,[36],> 100 µM
same,TGI,[37],> 100 µM
same,TGI,[38],> 100 µM
same,TGI,[39],> 100 µM
same,TGI,[40],> 100 µM
same,TGI,[41],> 100 µM
same,TGI,[42],> 100 µM
same,TGI,[43],> 100 µM
same,TGI,[44],> 100 µM
same,TGI,[45],> 100 µM
same,TGI,[46],> 100 µM
same,TGI,[48],> 100 µM
same,TGI,[49],> 100 µM
same,TGI,[50],> 100 µM
same,TGI,[51],> 100 µM
same,TGI,[52],> 100 µM
same,TGI,[54],> 100 µM
same,TGI,[55],> 100 µM
same,TGI,[56],> 100 µM
same,TGI,[57],> 100 µM
same,TGI,[58],> 100 µM
